From US12448388B2, “PRMT5 inhibitors and uses thereof” (Gilead Sciences, Inc., priority 2023, dated 2025)
Read-outs that look alike come from different tables or passages of the source.

Test system: HCT116 MTAP-deleted cell lines
Experiment: Cell viability assay (CellTiter-Glo, 7 days), HCT116 MTAP-deleted
Type: cell-based
Conditions: Homo sapiens, HCT-116, HCT116 MTAP-deleted, class symbols, read-out: CC50
Summary of the method: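 HCT116 MTAP-deleted and wild-type cells exposed to serially diluted compound for 7 days at 37 °C, 5% CO2. Viability read by CellTiter-Glo luminescence; CC50 derived per line, with selectivity comparing WT to MTAP-deleted, limited solubility can inflate values marked *.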

| Structure (SMILES) | CC50 (cell viability assay) | CC50 (cell viability) |
| --- | --- | --- |
| C[C@H]1CN(C(=O)c2cc3c(cc2F)nc(N)c2cnc(Br)n23)[C@H]2c3ccc(C(F)(F)F)cc3C[C@H]2O1 (single isomer, unassigned) [Ff-496] | 0.1 to 1 µM | – |
| CN(C(=O)c1cc2c(cc1F)nc(N)c1cncn12)[C@@H]1COc2cc([C@@H]3C[C@H]3C(F)F)ccc21 (single isomer, unassigned) [Ff-504] | < 0.1 µM | – |
| CN(C(=O)c1cc2c(cc1F)nc(N)c1cncn12)[C@@H]1COc2cc([C@H]3C[C@@H]3C(F)F)ccc21 (single isomer, unassigned) [Ff-505] | < 0.1 µM | – |
| Nc1nc2cc(F)c(C(=O)N3CCOC[C@@H]3c3ccc(C(F)(F)F)cn3)cc2n2cncc12 (single isomer, unassigned) [Ff-547] | < 0.1 µM | – |
| Nc1nc2cc(F)c(C(=O)N3CCOC[C@@H]3c3ccc(OC(F)(F)F)cc3)cc2n2cncc12 (single isomer, unassigned) [Ff-555] | < 0.1 µM | – |
| Nc1nc2cc(F)c(C(=O)N3CCOC[C@H]3c3ccc(OC(F)(F)F)cc3)cc2n2cncc12 (single isomer, unassigned) [Ff-556] | 0.1 to 1 µM | – |
| CN(C(=O)c1cc2c(cc1F)nc(N)c1cncn12)[C@@H]1COc2cc(OC(F)(F)F)ccc21 (single isomer, unassigned) [Ff-557] | < 0.1 µM | – |
| CN(C(=O)c1cc2c(cc1F)nc(N)c1cncn12)[C@H]1COc2cc(OC(F)(F)F)ccc21 (single isomer, unassigned) [Ff-558] | 0.1 to 1 µM | – |
| CN(C(=O)c1cc2c(cc1F)nc(N)c1cncn12)[C@@H]1COc2cc(OC(F)F)ccc21 (single isomer, unassigned) [Ff-559] | < 0.1 µM | – |
| CN(C(=O)c1cc2c(cc1F)nc(N)c1cncn12)[C@@H]1COc2cc(Cl)c(F)cc21 (single isomer, unassigned) [Ff-597] | < 0.1 µM | – |
| CN(C(=O)c1cc2c(cc1F)nc(N)c1cncn12)[C@@H]1COc2cc(C(F)(F)F)cc(F)c21 (single isomer, unassigned) [Ff-601] | < 0.1 µM | – |
| CN(C(=O)c1cc2c(cc1F)nc(N)c1cncn12)[C@@H]1COc2cc(Cl)c(Cl)cc21 (single isomer, unassigned) [Ff-605] | < 0.1 µM | – |
| CN(C(=O)c1cc2c(cc1F)nc(N)c1cncn12)[C@@H]1COc2c1ccc(Cl)c2Cl (single isomer, unassigned) [Ff-606] | 0.1 to 1 µM | – |
| Cc1ncn2c1c(N)nc1cnc(C(=O)N3[C@H](C)CC[C@@H]4Oc5cc(C(F)(F)F)ccc5[C@@H]43)cc12 (single isomer, unassigned) [Ff-611] | < 0.1 µM | – |
| Cc1ncn2c1c(N)nc1cnc(C(=O)N3[C@@H]4c5ccc(C(F)(F)F)cc5O[C@@H]4CC[C@@H]3C)cc12 (single isomer, unassigned) [Ff-612] | 0.1 to 1 µM | – |
| C[C@H]1CN(C(=O)c2cc3c(cc2F)nc(N)c2cncn23)[C@H]2Cc3ccccc3[C@H]2O1 (single isomer, unassigned) [Ff-623] | 0.1 to 1 µM | – |
| C[C@@H]1CN(C(=O)c2ccc3nc(N)c4cncn4c3c2)[C@H]2c3cc(F)c(OC(F)(F)F)cc3C[C@H]2O1 (single isomer, unassigned) [Ff-628] | < 0.1 µM | – |
| [2H]C([2H])([2H])[C@@H]1CN(C(=O)c2cc3c(cc2F)nc(N)c2cncn23)[C@H]2c3ccc(C(F)(F)F)cc3C[C@H]2O1 (single isomer, unassigned) [Ff-638] | < 0.1 µM | – |
| [2H]C([2H])([2H])[C@H]1CN(C(=O)c2cc3c(cc2F)nc(N)c2cncn23)[C@H]2c3ccc(C(F)(F)F)cc3C[C@H]2O1 (single isomer, unassigned) [Ff-639] | < 0.1 µM | – |
| Nc1nc2cc(F)c(C(=O)N3CCC[C@@H]4Oc5cc(C(F)(F)F)ccc5[C@@H]43)cc2n2c(Cl)ncc12 (single isomer, unassigned) [Ff-646] | < 0.1 µM | – |
| Nc1nc2cc(F)c(C(=O)N3CCC[C@@H]4Oc5cc(C(F)(F)F)ccc5[C@@H]43)cc2n2cnc(Cl)c12 (single isomer, unassigned) [Ff-647] | < 0.1 µM | – |

| Structure (SMILES) | CC50 (cell viability assay) | CC50 (cell viability) |
| --- | --- | --- |
| C[C@@H]1CN(C(=O)c2cc3c(cc2F)nc(N)c2cncn23)[C@@H](c2cccc(C(F)F)n2)CO1 (single isomer, unassigned) [Ff-668] | 0.1 to 1 µM | – |
| Cc1ncn2c1c(N)nc1ccc(C(=O)N3C[C@@H](C)O[C@@H]4Cc5cc(OC(F)(F)F)ccc5[C@@H]43)cc12 (single isomer, unassigned) [Fg-22] | < 0.1 µM | – |
| Cc1ncn2c1c(N)nc1ccc(C(=O)N3C[C@H](C)O[C@@H]4Cc5cc(OC(F)(F)F)ccc5[C@@H]43)cc12 (single isomer, unassigned) [Fg-23] | < 0.1 µM | – |
| CN(C(=O)c1cc2c(cc1F)nc(N)c1cncn12)[C@@H]1COc2ccc([C@H]3C[C@@H]3C#N)cc21 (stereo in doubt) [Ff-263, Trans-4-amino-N-((3S)-5-(2-cyanocyclopropyl)-2,3-dihydrobenzofuran-3-yl)-7-fluoro-N-methylimidazo[1,5-a]quinoxaline-8-carboxamide] | – | 0.1 to 1 µM |
| CN(C(=O)C1CC1)N(Cc1cc(F)c(F)cc1F)C(=O)c1cc2c(cc1F)nc(N)c1cncn12 [Fa-8, 4-amino-N′-(cyclopropanecarbonyl)-7-fluoro-N′-methyl-N-(2,4,5-trifluorobenzyl)imidazo[1,5-a]quinoxaline-8-carbohydrazide] | – | < 0.1 µM |
| CC(=O)N(C)N(Cc1ccc(C(F)(F)F)cc1Cl)C(=O)c1cc2c(cc1F)nc(N)c1cncn12 [Fb-1, N′-acetyl-4-amino-N-(2-chloro-4-(trifluoromethyl)benzyl)-7-fluoro-N′-methylimidazo[1,5-a]quinoxaline-8-carbohydrazide] | – | < 0.1 µM |
| Cn1c(CN(C(=O)c2cc3c(cc2F)nc(N)c2cncn23)N2CCCC2=O)nc2cc(C(F)(F)F)ccc21 [Fb-7, 4-amino-7-fluoro-N-((1-methyl-5-(trifluoromethyl)-1H-benzo[d]imidazol-2-yl)methyl)-N-(2-oxopyrrolidin-1-yl)imidazo[1,5-a]quinoxaline-8-carboxamide] | – | < 0.1 µM |
| CN(C(=O)c1cc2c(cc1F)nc(N)c1cncn12)[C@@H](c1ccc(C(F)(F)F)cc1)C(F)F [Fb-9, (S)-4-amino-N-(2,2-difluoro-1-(4-(trifluoromethyl)phenyl)ethyl)-7-fluoro-N-methylimidazo[1,5-a]quinoxaline-8-carboxamide] | – | < 0.1 µM |
| CN(C(=O)c1cc2c(cc1F)nc(N)c1cncn12)[C@@H](c1ccc(OC(F)F)cc1F)C(F)F [Fb-10, (S)-4-amino-N-(1-(4-(difluoromethoxy)-2-fluorophenyl)-2,2-difluoroethyl)-7-fluoro-N-methylimidazo[1,5-a]quinoxaline-8-carboxamide] | – | < 0.1 µM |
| CN(C(=O)c1cc2c(cc1F)nc(N)c1cncn12)[C@@H](c1ccc(OC(F)(F)F)cc1F)C(F)F [Fb-11, (S)-4-amino-N-(2,2-difluoro-1-(2-fluoro-4-(trifluoromethoxy)phenyl)ethyl)-7-fluoro-N-methylimidazo[1,5-a]quinoxaline-8-carboxamide] | – | < 0.1 µM |
| CN(C(=O)c1cc2c(cn1)nc(N)c1cncn12)[C@@H](c1ccc(OC(F)(F)F)cc1F)C(F)F [Fb-12, (S)-4-amino-N-(2,2-difluoro-1-(2-fluoro-4-(trifluoromethoxy)phenyl)ethyl)-N-methylimidazo[1,5-a]pyrido[3,4-e]pyrazine-8-carboxamide] | – | 0.1 to 1 µM |
| CN(C(=O)c1cc2c(cc1F)nc(N)c1cncn12)[C@@H](c1ccc(OC(F)(F)F)cc1)C(F)F [Fb-13, (S)-4-amino-N-(2,2-difluoro-1-(4-(trifluoromethoxy)phenyl)ethyl)-7-fluoro-N-methylimidazo[1,5-a]quinoxaline-8-carboxamide] | – | < 0.1 µM |
| CN(C(=O)c1ccc2nc(N)c3cncn3c2c1)[C@@H](c1ccc(C(F)(F)F)cc1F)C(F)F [Fb-14, (S)-4-amino-N-(2,2-difluoro-1-(2-fluoro-4-(trifluoromethyl)phenyl)ethyl)-N-methylimidazo[1,5-a]quinoxaline-8-carboxamide] | – | < 0.1 µM |
| CCN(C(=O)c1ccc2nc(N)c3cncn3c2c1)[C@@H](c1ccc(C(F)(F)F)cc1F)C(F)F [Fb-15, (S)-4-amino-N-(2,2-difluoro-1-(2-fluoro-4-(trifluoromethyl)phenyl)ethyl)-N-ethylimidazo[1,5-a]quinoxaline-8-carboxamide] | – | < 0.1 µM |
| CC(=O)N(C)N(Cc1ccn(-c2ccc(F)cc2F)n1)C(=O)c1cc2c(cc1F)nc(N)c1cncn12 [Fb-16, N′-acetyl-4-amino-N-((1-(2,4-difluorophenyl)-1H-pyrazol-3-yl)methyl)-7-fluoro-N′-methylimidazo[1,5-a]quinoxaline-8-carbohydrazide] | – | 0.1 to 1 µM |
| CC(=O)N(C)N(Cc1ccc(C(F)(F)F)cc1Cl)C(=O)c1ccc2nc(N)c3cncn3c2c1 [Fb-17, N′-acetyl-4-amino-N-(2-chloro-4-(trifluoromethyl)benzyl)-N′-methylimidazo[1,5-a]quinoxaline-8-carbohydrazide] | – | < 0.1 µM |
| [2H]C([2H])([2H])N(C(=O)c1cc2c(cc1F)nc(N)c1cncn12)[C@@H](c1ccc(C(F)(F)F)cc1F)C(F)F [Fb-18, (S)-4-amino-N-(2,2-difluoro-1-(2-fluoro-4-(trifluoromethyl)phenyl)ethyl)-7-fluoro-N-(methyl-d3)imidazo[1,5-a]quinoxaline-8-carboxamide] | – | < 0.1 µM |
| CC1(C)CN(C(=O)c2cc3c(cc2F)nc(N)c2cncn23)CC1c1ccccc1 (centres unmarked) [Ff-2, (4-amino-7-fluoroimidazo[1,5-a]quinoxalin-8-yl)(3,3-dimethyl-4-phenylpyrrolidin-1-yl)methanone] | – | 0.1 to 1 µM |
| Nc1nc2cc(F)c(C(=O)N3CC4CC4(c4ccc(C(F)(F)F)cc4)C3)cc2n2cncc12 (centres unmarked) [Ff-3, (4-amino-7-fluoroimidazo[1,5-a]quinoxalin-8-yl)(1-(4-(trifluoromethyl)phenyl)-3-azabicyclo[3.1.0]hexan-3-yl)methanone] | – | > 1 µM |
| CN(C(=O)c1ccc2nc(N)c3cncn3c2c1)C1CCc2nc(Cl)sc21 (centres unmarked) [Ff-15, 4-amino-N-(2-chloro-5,6-dihydro-4H-cyclopenta[d]thiazol-6-yl)-N-methylimidazo[1,5-a]quinoxaline-8-carboxamide] | – | > 1 µM |
